This is an account of results in patent publication US8501946B2 (Glaxo Group Limited, priority 2009, dated 2013).

In experiment [1] the target is T1, human recombinant P2X7 receptors (Homo sapiens, UniProt Q99572).
T1 construct: expressed in transfected cells
T1 sequence (Q99572 1-595): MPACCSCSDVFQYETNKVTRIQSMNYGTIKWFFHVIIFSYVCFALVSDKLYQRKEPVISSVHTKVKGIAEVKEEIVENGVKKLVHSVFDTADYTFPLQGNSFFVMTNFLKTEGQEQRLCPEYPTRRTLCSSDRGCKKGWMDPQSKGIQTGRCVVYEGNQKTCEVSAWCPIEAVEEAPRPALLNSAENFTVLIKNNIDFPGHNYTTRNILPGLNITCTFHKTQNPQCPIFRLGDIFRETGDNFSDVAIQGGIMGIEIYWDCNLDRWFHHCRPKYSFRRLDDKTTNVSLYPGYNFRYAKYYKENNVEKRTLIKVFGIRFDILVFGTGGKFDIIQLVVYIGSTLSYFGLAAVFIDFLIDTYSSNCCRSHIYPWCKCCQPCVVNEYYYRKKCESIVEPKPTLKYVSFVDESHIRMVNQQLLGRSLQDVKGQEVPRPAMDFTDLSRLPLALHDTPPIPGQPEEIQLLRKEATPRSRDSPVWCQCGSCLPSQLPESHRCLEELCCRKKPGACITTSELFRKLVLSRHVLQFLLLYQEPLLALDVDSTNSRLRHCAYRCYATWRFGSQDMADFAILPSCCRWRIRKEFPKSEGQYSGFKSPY
Briefly: Ethidium Accumulation Assay 2 (HEK293 cells, ATP-induced ethidium uptake). Format: cell-based. The conditions noted are these: HEK293 cells expressing human P2X7; sometimes mean of more than one measurement; read-out: Assay 2 (antagonist pIC50 for blocking ATP responses) (converted). As to the method:
Eithidium Accumulation Assay 2
Human Embryonic Kidney (HEK) 293 cells, stably expressing human recombinant P2X7 receptors, were grown in poly-D-lysine pretreated 96 well plates for 24 hours at 37° C.
The cells were washed with assay buffer (100 μL), before addition of 25 μL of assay buffer and then 25 ul of assay buffer containing the putative P2X7 receptor antagonist compound. The cells were then incubated at room temperature (19-21° C.) for 30 min before addition of ATP solution (50 μM). […] Antagonist pIC50 values for blocking ATP responses were determined using iterative curve fitting techniques.

The target of experiment [2] is T1, human recombinant P2X7 receptors. The experiment in a line: Ethidium Accumulation Assay 1 (HEK293 cells, ATP-induced ethidium uptake). Format: cell-based. Particulars: HEK293 cells expressing human P2X7; 1 mM ATP; sometimes mean of more than one measurement; read-out: Assay 1 (antagonist pIC50 for blocking ATP responses) (converted).

`O=C(c1cccc(C(F)(F)F)c1Cl)N1CCn2c(nnc2-c2ccc(F)cn2)C1` [Example 45, 7-{[2-chloro-3-(trifluoromethyl)phenyl]carbonyl}-3-(5-fluoro-2-pyridinyl)-5,6,7,8-tetrahydro[1,2,4]triazolo[4,3-a]pyrazine]: the IC50 in experiment [1] and in experiment [2] was under 10 nM throughout.
Take `O=C(c1cccc(C(F)(F)F)c1Cl)N1CCn2cnnc2C1` [Example 3, 7-{[2-chloro-3-(trifluoromethyl)phenyl]carbonyl}-5,6,7,8-tetrahydro[1,2,4]triazolo [4,3-a]pyrazine]: the IC50 in experiment [1] and in experiment [2] was under 501 nM throughout.
Regarding `CCc1nnc2n1CCN(C(=O)c1cccc(C(F)(F)F)c1Cl)C2` [Example 4, 7-{[2-chloro-3-(trifluoromethyl)phenyl]carbonyl}-3-ethyl-5,6,7,8-tetrahydro[1,2,4]triazolo [4,3-a]pyrazine], the IC50 in experiment [1] and in experiment [2] was under 100 nM throughout.
With `O=C(c1ccc(F)cc1Cl)N1CCn2c(nnc2-c2cccc(Cl)c2)C1` [Example 126, 7-[(2-chloro-4-fluorophenyl)carbonyl]-3-(3-chlorophenyl)-5,6,7,8-tetrahydro[1,2,4]triazolo[4,3-a]pyrazine], the IC50 in experiment [1] and in experiment [2] was under 100 nM in each case.
With `O=C(c1ccc(F)c(Cl)c1Cl)N1CCn2c(nnc2-c2ccc(F)cn2)C1` [Example 114, 7-[(2,3-Dichloro-4-fluorophenyl)carbonyl]-3-(5-fluoro-2-pyridinyl)-5,6,7,8-tetrahydro[1,2,4]triazolo[4,3-a]pyrazine], the IC50 in experiment [1] and in experiment [2] was under 10 nM in each case.
Turning to `Cc1ccnc(-c2nnc3n2CCN(C(=O)c2ccc(Cl)c(F)c2Cl)C3)c1` [Example 172, 7-[(2,4-dichloro-3-fluorophenyl)carbonyl]-3-(4-methyl-2-pyridinyl)-5,6,7,8-tetrahydro[1,2,4]triazolo[4,3-a]pyrazine], in experiment [1], the IC50 was under 100 nM.
As to `Cc1scnc1-c1nnc2n1CCN(C(=O)c1ccc(Cl)cc1Cl)C2` [Example 206, 7-[(2,4-dichlorophenyl)carbonyl]-3-(5-methyl-1,3-thiazol-4-yl)-5,6,7,8-tetrahydro[1,2,4]triazolo[4,3-a]pyrazine], the IC50 in experiment [1] is under 100 nM.
`O=C(c1ccc(Cl)c(F)c1Cl)N1CCn2c(nnc2-c2cscn2)C1` [Example 149, 7-[(2,4-dichloro-3-fluorophenyl)carbonyl]-3-(1,3-thiazol-4-yl)-5,6,7,8-tetrahydro[1,2,4]triazolo[4,3-a]pyrazine]: in experiment [1], the IC50 was under 10 nM.
Take `Cc1ccnc(-c2nnc3n2CCN(C(=O)c2ccc(Cl)c(F)c2Cl)C3)n1` [Example 177, 7-[(2,4-dichloro-3-fluorophenyl)carbonyl]-3-(4-methyl-2-pyrimidinyl)-5,6,7,8-tetrahydro[1,2,4]triazolo[4,3-a]pyrazine]: the IC50 in experiment [1] was under 10 nM.
Still for that read-out and setting: then `O=C(c1ccc(Cl)c(F)c1Cl)N1CCn2c(nnc2-c2ncccc2O)C1` [Example 175, 2-{7-[(2,4-dichloro-3-fluorophenyl)carbonyl]-5,6,7,8-tetrahydro[1,2,4]triazolo[4,3-a]pyrazin-3-yl}-3-pyridinol], with under 100 nM.
With `N#Cc1c(Cl)cccc1C(=O)N1CCn2c(nnc2-c2ccccn2)C1` [Example 204, 2-Chloro-6-{[3-(2-pyridinyl)-5,6-dihydro[1,2,4]triazolo[4,3-a]pyrazin-7(8H)-yl]carbonyl}benzonitrile], the IC50 in experiment [1] was under 10 nM.
For the molecule `O=C(c1ccc(Cl)c(F)c1Cl)N1CCn2c(nnc2-c2cnccn2)C1` [Example 111, 7-[(2,4-Dichloro-3-fluorophenyl)carbonyl]-3-(2-pyrazinyl)-5,6,7,8-tetrahydro[1,2,4]triazolo[4,3-a]pyrazine], the IC50 in experiment [1] and in experiment [2] was under 10 nM each time.
For the molecule `Cc1c(F)ccc(C(=O)N2CCn3c(nnc3-c3cnccn3)C2)c1Cl` [Example 153, 7-[(2-chloro-4-fluoro-3-methylphenyl)carbonyl]-3-(2-pyrazinyl)-5,6,7,8-tetrahydro[1,2,4]triazolo[4,3-a]pyrazine], the IC50 in experiment [1] was under 10 nM.
Still for that read-out and setting: then `O=C(c1ccc(Cl)cc1Cl)N1CCn2c(nnc2-c2cnsn2)C1` [Example 160, 7-[(2,4-dichlorophenyl)carbonyl]-3-(1,2,5-thiadiazol-3-yl)-5,6,7,8-tetrahydro[1,2,4]triazolo[4,3-a]pyrazine], with under 100 nM; and `O=C(c1cccc(C(F)(F)F)c1Cl)N1CCn2c(nnc2-c2ncccc2O)C1` [Example 166, 2-(7-{[2-Chloro-3-(trifluoromethyl)phenyl]carbonyl}-5,6,7,8-tetrahydro[1,2,4]triazolo[4,3-a]pyrazin-3-yl)-3-pyridinol], with under 10 nM.
On the same count and under the same terms, under `O=C(c1ccc(Cl)c(F)c1Cl)N1CCn2c(nnc2-n2cccn2)C1` [Example 184, 7-[(2,4-Dichloro-3-fluorophenyl)carbonyl]-3-(1H-pyrazol-1-yl)-5,6,7,8-tetrahydro[1,2,4]triazolo[4,3-a]pyrazine] stands under 100 nM.
Take `O=C(c1cccc(C(F)(F)F)c1Cl)N1CCn2c(nnc2-c2cccnn2)C1` [Example 44, 7-{[2-chloro-3-(trifluoromethyl)phenyl]carbonyl}-3-(3-pyridazinyl)-5,6,7,8-tetrahydro[1,2,4]triazolo [4,3-a]pyrazine]: the IC50 in experiment [1] and in experiment [2] was under 100 nM in each case.
`O=C(c1ccc(Cl)cc1Cl)N1CCn2c(nnc2-c2nccs2)C1` [Example 199, 7-[(2,4-Dichlorophenyl)carbonyl]-3-(1,3-thiazol-2-yl)-5,6,7,8-tetrahydro[1,2,4]triazolo[4,3-a]pyrazine]: in experiment [1], the IC50 was under 100 nM.
On to `O=C(c1ccc(Cl)cc1Cl)N1CCn2c(nnc2-c2ccno2)C1` [Example 157, 7-[(2,4-dichlorophenyl)carbonyl]-3-(5-isoxazolyl)-5,6,7,8-tetrahydro[1,2,4]triazolo[4,3-a]pyrazine], for which the IC50 in experiment [1] was under 501 nM.
For the molecule `Cc1c(C(=O)N2CCn3c(nnc3-c3ccc(F)cn3)C2)ccc(F)c1F` [Example 155, 7-[(3,4-difluoro-2-methylphenyl)carbonyl]-3-(5-fluoro-2-pyridinyl)-5,6,7,8-tetrahydro[1,2,4]triazolo[4,3-a]pyrazine], in experiment [1], the IC50 was under 100 nM.
For `O=C(c1ccc(F)c(Cl)c1Cl)N1CCn2c(nnc2-c2cccnn2)C1` [Example 168, 7-[(2,3-Dichloro-4-fluorophenyl)carbonyl]-3-(3-pyridazinyl)-5,6,7,8-tetrahydro[1,2,4]triazolo[4,3-a]pyrazine], the IC50 in experiment [1] is under 100 nM.
Same read-out and setting: under `Cc1scnc1-c1nnc2n1CCN(C(=O)c1ccc(Cl)c(F)c1Cl)C2` [Example 197, 7-[(2,4-Dichloro-3-fluorophenyl)carbonyl]-3-(5-methyl-1,3-thiazol-4-yl)-5,6,7,8-tetrahydro[1,2,4]triazolo[4,3-a]pyrazine] stands under 10 nM; under `O=C(c1cccc(Cl)c1Cl)N1CCn2c(nnc2-c2ncns2)C1` [Example 192, 7-[(2,3-Dichlorophenyl)carbonyl]-3-(1,2,4-thiadiazol-5-yl)-5,6,7,8-tetrahydro [1,2,4]triazolo[4,3-a]pyrazine], under 10 nM.
For `O=C(c1ccc(Cl)c(F)c1Cl)N1CCn2c(nnc2-c2csnn2)C1` [Example 189, 7-[(2,4-Dichloro-3-fluorophenyl)carbonyl]-3-(1,2,3-thiadiazol-4-yl)-5,6,7,8-tetrahydro[1,2,4]triazolo[4,3-a]pyrazine], the IC50 in experiment [1] is under 100 nM.
Turning to `Cc1cnc(-c2nnc3n2CCN(C(=O)c2ccc(Cl)c(F)c2Cl)C3)s1` [Example 188, 7-[(2,4-Dichloro-3-fluorophenyl)carbonyl]-3-(5-methyl-1,3-thiazol-2-yl)-5,6,7,8-tetrahydro[1,2,4]triazolo[4,3-a]pyrazine], in experiment [1], the IC50 was under 100 nM.
In the case of `Cc1nnc2n1CCN(C(=O)c1cccc(C(F)(F)F)c1Cl)C2` [Example 15, 7-{[2-Chloro-3-(trifluoromethyl)phenyl]carbonyl}-3-methyl-5,6,7,8-tetrahydro[1,2,4]triazolo[4,3-a]pyrazine], the IC50 in experiment [1] was under 501 nM; in experiment [2] it was under 100 nM.
On to `Cc1ccc(-c2nnc3n2CCN(C(=O)c2cccc(C(F)(F)F)c2Cl)C3)o1` [Example 159, 7-{[2-chloro-3-(trifluoromethyl)phenyl]carbonyl}-3-(5-methyl-2-furanyl)-5,6,7,8-tetrahydro[1,2,4]triazolo[4,3-a]pyrazine], for which the IC50 in experiment [1] was under 10 nM.
